Measurements taken from patent publication EP0054589B1, “Organic phosphoric acid ester derivatives, a process for preparing the same and insecticidal, miticidal or nematocidal compositions containing the same” (priority 1980, dated 1982).
Like-named read-outs stand apart in the source and are kept apart here.

Tests used:
[1] = tested on: Tomato; assay: Phytotoxicity on various crops; type: in vivo; parameters: key: Symbol — indicates that no toxicity was observed; details: 500 ppm sprayed; checked visually after 10 days
Summary of the method: (§1)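 Visual phytotoxicity rating at 10 days post-spray, greenhouse-grown plants. Treatment: EC formulation, 500 ppm a.i. in water, sprayed to full coverage. n=3 per compound.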

[2] = tested on: Beet; assay: Phytotoxicity on various crops; type: in vivo; parameters: key: Symbol — indicates that no toxicity was observed; details: 500 ppm sprayed; checked visually after 10 days
Summary of the method: as §1

[3] = tested on: Cabbage; assay: Phytotoxicity on various crops; type: in vivo; parameters: key: Symbol — indicates that no toxicity was observed; details: 500 ppm sprayed; checked visually after 10 days
Summary of the method: as §1

[4] = tested on: Cotton; assay: Phytotoxicity on various crops; type: in vivo; parameters: key: Symbol — indicates that no toxicity was observed; details: 500 ppm sprayed; checked visually after 10 days
Summary of the method: as §1

[5] = tested on: egg plant; assay: Phytotoxicity on various crops; type: in vivo; parameters: key: Symbol — indicates that no toxicity was observed; details: 500 ppm sprayed; checked visually after 10 days
Summary of the method: as §1

[6] = tested on: Tea; assay: Phytotoxicity on various crops; type: in vivo; parameters: key: Symbol — indicates that no toxicity was observed; details: 500 ppm sprayed; checked visually after 10 days
Summary of the method: as §1

[7] = tested on: Cucumber; assay: Phytotoxicity on various crops; type: in vivo; parameters: key: Symbol — indicates that no toxicity was observed; details: 500 ppm sprayed; checked visually after 10 days
Summary of the method: as §1

[8] = tested on: Green Pepper; assay: Phytotoxicity on various crops; type: in vivo; parameters: key: Symbol — indicates that no toxicity was observed; details: 500 ppm sprayed; checked visually after 10 days
Summary of the method: as §1

[9] = tested on: Apple; assay: Phytotoxicity on various crops; type: in vivo; parameters: key: Symbol — indicates that no toxicity was observed; details: 500 ppm sprayed; checked visually after 10 days
Summary of the method: as §1

[10] = tested on: Kidney Bean; assay: Phytotoxicity on various crops; type: in vivo; parameters: key: Symbol — indicates that no toxicity was observed; details: 500 ppm sprayed; checked visually after 10 days
Summary of the method: as §1

[11] = tested on: Rice; assay: Phytotoxicity on various crops; type: in vivo; parameters: key: Symbol — indicates that no toxicity was observed; details: 500 ppm sprayed; checked visually after 10 days
Summary of the method: as §1

[12] = tested on: diamond back moth; assay: Insecticidal effect on diamond-back moth (cabbage leaf dip); type: in vivo, Plutella xylostella; details: 100 ppm, after 72 hours, 25°C
Experimental: (A) An emulsifiable concentrate prepared as described in Formulation Example 1 was diluted with water to a predetermined concentration and leaves of a cabbage were dipped into the dilute emulsion for 10 seconds followed by drying in air, and charged in a 60 ml volume cup made of vinyl chloride resin. Then, thirty 3rd-instar larvae of diamond back moth were put in each cup, and the cups were kept at 25°C. After 72 hours, percent mortality was assessed and the test was replicated 3 times for each treatment.
(B) An emulsifiable concentrate prepared as described in Formulation Example 4 was diluted with water to a predetermined concentration and leaves of a cabbage were dipped into the dilute emulsion for 10 seconds followed by drying in air, and charged in a 60 ml volume cup made of vinyl chloride resin. Then, thirty 3rd-instar larvae of diamond back moth were put in each cup, and the cups were kept at 25°C. After 72 hours, percent mortality was assessed and the test was replicated 3 times for each treatment.

[13] = tested on: tobacco cutworm; assay: Insecticidal effect on tobacco cutworm (cabbage leaf dip); type: in vivo, Prodenia litura; details: after 48 hours, 25°C
Summary of the method: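 Cabbage leaves dipped in water-diluted emulsifiable concentrate (two formulations, tests A and B) and air-dried were fed to 3rd-instar tobacco cutworm larvae at 25°C. Percent mortality scored after 48 hours; 3 replicates of 30 insects per compound.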

[14] = tested on: rice stem borer; assay: Insecticidal effect on rice stem borer, 3rd-instar larvae (rice seedling dip); type: in vivo, Chilo suppressalis; details: after 72 hours, 25°C
Summary of the method: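 Wettable-powder formulations were diluted in water to set concentrations, and rice seedlings were dipped in them. Ten 3rd-instar larvae were placed per capped cup with the treated seedlings and held at 25°C.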

[15] = tested on: smaller tea tortrix; assay: Insecticidal effect on smaller tea tortrix (apple leaf dip); type: in vivo; details: Adoxophyes orana, foliar; Table 9; 100 ppm; after 72 hours, 25°C; wettable powder as Formulation Example 5; read-out: Percent Mortality
Experimental: Leaves of an apple tree were dipped into a dilute water suspension of a wettable powder prepared as described in Formulation Example 5. After drying in air, the leaves were charged in a 60 ml volume cup made of vinyl chloride resin, and […] 3rd-instar larvae of smaller tea tortrix were put in each cup. The cups were capped and kept at 25°C. After 72 hours, the number of the surviving insects and the dead insects were recorded to determine percent mortality. In each treatment, 3 cups and 30 insects were used in total.

[16] = tested on: tobacco cutworm; assay: Long-lasting insecticidal effect on tobacco cutworm (sprayed cabbage plantlet); type: in vivo, Prodenia litura; details: concentration 500 (unit not given), mortality after 48 hours; for Percent Mortality After Application 3rd Day: leaves cut on 3rd day; for Percent Mortality After Application 5th Day: leaves cut on 5th day; for Percent Mortality After Application 7th Day: leaves cut on 7th day; for Percent Mortality After Application 10th Day: leaves cut on 10th day; for Percent Mortality After Application 15th Day: leaves cut on 15th day
Experimental: (§2) (A) An emulsifiable concentrate prepared as described in Formulation Example 2 was diluted with water to a predetermined concentration and sprayed onto a cabbage plantlet in a flower pot of 15 cm in diameter using a spray-gun sufficiently and the tests plants were placed in a green house. The leaves of the plants were cut off on the 3rd, 5th, 7th, 10th and 15th day and placed in a 60 ml volume cup and 3rd-instar larvae of tobacco cutworm were put in each cup. The cups were kept in an incubator (25°C). After 48 hours, percent mortality was assessed. The tests was replicated 3 times for each compound using 30 insects in each test.
as §2, with “(B) An” for “(A) An”, “Example 3” for “Example 2”, “and 1 5th” for “and 15th”

[17] = tested on: apple leaf miner; assay: Insecticidal effect on apple leaf miner (sprayed apple seedling); type: in vivo, Lithocolletis ringoniella; details: Phyllonorycter ringoniella, 336 h, 500 ppm, fourteen days after spraying
Experimental: (A) A dilute water suspension of a wettable powder prepared as described in Formulation Example 5 was sufficiently sprayed using a spray-gun on a seedling of an apple tree planted in a bisque flower pot to which plant larvae of apple leaf miner just after hatching were parasitic. Thereafter the pots were placed in a green house. Fourteen days after the spraying, bores made by larvae were broken and percent mortality was assessed for all the leaves of each seedling. Three pots were used for each treatment.
(B) A dilute water suspension of a wettable powder prepared as described in Formulation Example 7 was sufficiently sprayed using a spray-gun on a seedling of an apple tree planted in a bisque flower pot to which plant larvae of apple leaf miner just after hatching were parasitic. Thereafter the pots were placed in a green house. Fourteen days after the spraying, bores made by larvae were broken and percent mortality was assessed for all the leaves of each seedling. Three pots were used for each treatment.

[18] = Table 7, emulsifiable concentrate as Formulation Example 1
[19] = Table 8, emulsifiable concentrate as Formulation Example 4
[20] = Table 3, 500 ppm, emulsifiable concentrate as Formulation Example 1
[21] = Table 4, 100 ppm, emulsifiable concentrate as Formulation Example 3
[22] = Table 1, 100 ppm, wettable powder as Formulation Example 5
[23] = Table 1, 500 ppm, wettable powder as Formulation Example 5
[24] = Table 2, 100 ppm, wettable powder as Formulation Example 7

| Compound | Phytotoxicity: Tomato [1] | Phytotoxicity: Beet [2] | Phytotoxicity: Cabbage [3] | Phytotoxicity: Cotton [4] | Phytotoxicity: Egg Plant [5] | Phytotoxicity: Tea [6] | Phytotoxicity: Cucumber [7] | Phytotoxicity: Green Pepper [8] | Phytotoxicity: Apple [9] | Phytotoxicity: Kidney Bean [10] | Phytotoxicity: Rice [11] | Percent Mortality (%) [12, 18] | Percent Mortality (%) [12, 19] | Percent Mortality (%) [13, 20] | Percent Mortality (%) [13, 21] | Percent Mortality (%) [14, 22] | Percent Mortality (%) [14, 23] | Percent Mortality (%) [14, 24] | mortality at 100 ppm [15] | further results |
| --- | --- | --- | --- | --- | --- | --- | --- | --- | --- | --- | --- | --- | --- | --- | --- | --- | --- | --- | --- | --- |
| CCCSP(=O)(OCC)Oc1ccc2c(c1)OC(C)CC2(C)C (stereo not drawn) [compound 17] | — | — | — | — | — | — | — | — | — | — | — | 100% | 100% | 100% | 100% | 100% | 100% | 100% | 100% | Percent Mortality After Application 3rd Day ([16]; Table 5): 100%; Percent Mortality After Application 5th Day ([16]; Table 5): 100%; Percent Mortality After Application 7th Day ([16]; Table 5): 100%; Percent Mortality After Application 10th Day ([16]; Table 5): 100%; Percent Mortality After Application 15th Day ([16]; Table 5): 53.3%; Percent Mortality After Application 3rd Day ([16]; Table 6): 100%; Percent Mortality After Application 5th Day ([16]; Table 6): 100%; Percent Mortality After Application 7th Day ([16]; Table 6): 100%; Percent Mortality After Application 10th Day ([16]; Table 6): 93.3%; Percent Mortality After Application 15th Day ([16]; Table 6): 30%; Percent Mortality After Application Immediately after Application ([16]; Table 6): 100% |
| CCOP(=O)(Oc1cccc2c1C(C)=CC(C)(C)O2)SC(C)CC (stereo not drawn) [compound 23] | — | — | — | — | — | — | — | — | — | — | — | 100% | 100% | 100% | 100% | 100% | 100% | 100% | 100% | mortality at 500 ppm ([17]; Table 10, wettable powder as Formulation Example 5, read-out: Percent Morality (%)): 100%; mortality at 500 ppm ([17]; Table 11, wettable powder as Formulation Example 7, read-out: Percent Mortality (%)): 100% |
